Literature values as cited in article PMC12256174, “Next-Generation Oral Delivery Systems: Phytosomal Hinokitiol Tablets via REGEMAT 3D Bioprinter-Based 3D Printing for Enhanced Bioavailability” (Scientifica, 2025).
Converted amounts (≈) assume the structure as drawn.

CC(C)c1cccc(=O)c(O)c1 [Hinokitiol]
aqueous solubility: 1120 ± 20 µg/mL (≈ 6.82 mM)
